Test results taken from PMC10046369, “Low-Affinity/High-Selectivity Dopamine Transport Inhibition Sufficient to Rescue Cognitive Functions in the Aging Rat” (Biomolecules, 2023).

Legend:
Assay in all cases: biochemical
Set-up in all cases: KINOMEscan competition binding panel, per cent of control
Settings in all cases: read-out: %Ctrl @ 2800nM
ADCK3 = target: T1, ADCK3 (Homo sapiens, UniProt Q8NI60)
T1 construct: gene COQ8A
Outline: (§1)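 Values are expressed as percent of control, calculated as ((test − positive control)/(negative control − positive control)) × 100, so lower numbers mean stronger hits. Binding was measured by KINOMEscan competition assay in a 450-kinase human panel including disease mutants, using the contractor's validated protocol.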

ADCK4 = target: T2, ADCK4 (Homo sapiens, UniProt Q96D53)
T2 construct: gene COQ8B
Outline: as §1

ARK5 = target: T3, ARK5 (Homo sapiens, UniProt O60285)
T3 construct: gene NUAK1
Outline: as §1

CIT = CIT (Homo sapiens, UniProt O14578)
Outline: as §1

DMPK = DMPK (Homo sapiens, UniProt Q09013)
Outline: as §1

EGFR = EGFR (Homo sapiens, UniProt P00533)
Outline: as §1

ERBB2 = ERBB2 (Homo sapiens, UniProt P04626)
Outline: as §1

LATS2 = LATS2 (Homo sapiens, UniProt Q9NRM7)
Outline: as §1

MAP4K3 = MAP4K3 (Homo sapiens, UniProt Q8IVH8)
Outline: as §1

MARK2 = MARK2 (Homo sapiens, UniProt Q7KZI7)
Outline: as §1

MAST1 = MAST1 (Homo sapiens, UniProt Q9Y2H9)
Outline: as §1

NDR1 = target: T4, NDR1 (Homo sapiens, UniProt Q15208)
T4 construct: gene STK38
Outline: as §1

NEK9 = NEK9 (Homo sapiens, UniProt Q8TD19)
Outline: as §1

PAK7 = target: T5, PAK7 (Homo sapiens, UniProt Q9P286)
T5 construct: gene PAK5
Outline: as §1

PCTK3 = target: T6, PCTK3 (Homo sapiens, UniProt Q07002)
T6 construct: gene CDK18
Outline: as §1

PKAC-alpha = target: T7, PKAC-alpha (Homo sapiens, UniProt P17612)
T7 construct: gene PRKACA
Outline: as §1

PKN2 = PKN2 (Homo sapiens, UniProt Q16513)
Outline: as §1

PRKCI = PRKCI (Homo sapiens, UniProt P41743)
Outline: as §1

PRKR = target: T8, PRKR (Homo sapiens, UniProt P19525)
T8 construct: gene EIF2AK2
Outline: as §1

RIPK1 = RIPK1 (Homo sapiens, UniProt Q13546)
Outline: as §1

[1] = target: T9, RSK1(Kin.Dom.2-C-terminal) (Homo sapiens, UniProt Q15418)
T9 construct: gene RPS6KA1; Kin.Dom.2-C-terminal
Outline: as §1

[2] = target: T10, RSK4(Kin.Dom.1-N-terminal) (Homo sapiens, UniProt Q9UK32)
T10 construct: gene RPS6KA6; Kin.Dom.1-N-terminal
Outline: as §1

SRPK2 = SRPK2 (Homo sapiens, UniProt P78362)
Outline: as §1

STK35 = STK35 (Homo sapiens, UniProt Q8TDR2)
Outline: as §1

TLK2 = TLK2 (Homo sapiens, UniProt Q86UE8)
Outline: as §1

p38-delta = target: T11, p38-delta (Homo sapiens, UniProt O15264)
T11 construct: gene MAPK13
Outline: as §1

NEK9, sequence (Q8TD19 whole entry): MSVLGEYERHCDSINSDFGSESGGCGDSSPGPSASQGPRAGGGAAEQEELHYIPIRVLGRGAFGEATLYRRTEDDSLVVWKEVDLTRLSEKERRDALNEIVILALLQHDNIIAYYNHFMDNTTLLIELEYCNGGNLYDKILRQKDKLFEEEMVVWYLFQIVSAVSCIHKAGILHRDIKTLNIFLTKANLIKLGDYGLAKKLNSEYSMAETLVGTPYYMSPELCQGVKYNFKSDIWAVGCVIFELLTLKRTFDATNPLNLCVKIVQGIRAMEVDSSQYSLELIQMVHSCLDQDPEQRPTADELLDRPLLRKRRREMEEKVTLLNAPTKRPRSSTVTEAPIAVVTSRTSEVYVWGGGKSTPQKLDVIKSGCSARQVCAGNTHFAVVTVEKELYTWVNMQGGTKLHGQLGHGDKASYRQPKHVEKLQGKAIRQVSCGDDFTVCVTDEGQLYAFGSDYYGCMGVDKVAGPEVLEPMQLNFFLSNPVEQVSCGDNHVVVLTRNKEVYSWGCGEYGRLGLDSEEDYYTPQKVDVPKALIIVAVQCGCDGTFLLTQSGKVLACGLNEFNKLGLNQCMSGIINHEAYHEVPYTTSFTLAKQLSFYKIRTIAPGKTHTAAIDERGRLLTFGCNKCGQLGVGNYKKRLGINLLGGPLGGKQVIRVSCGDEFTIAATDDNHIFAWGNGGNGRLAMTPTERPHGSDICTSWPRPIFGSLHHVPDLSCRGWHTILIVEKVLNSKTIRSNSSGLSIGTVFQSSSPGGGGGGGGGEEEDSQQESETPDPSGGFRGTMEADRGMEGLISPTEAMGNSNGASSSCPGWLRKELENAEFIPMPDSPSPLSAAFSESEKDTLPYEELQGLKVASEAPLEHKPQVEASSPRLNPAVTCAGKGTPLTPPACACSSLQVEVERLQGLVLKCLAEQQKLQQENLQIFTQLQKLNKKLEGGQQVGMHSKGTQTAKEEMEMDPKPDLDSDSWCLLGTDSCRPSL
MAST1, sequence (Q9Y2H9 whole entry): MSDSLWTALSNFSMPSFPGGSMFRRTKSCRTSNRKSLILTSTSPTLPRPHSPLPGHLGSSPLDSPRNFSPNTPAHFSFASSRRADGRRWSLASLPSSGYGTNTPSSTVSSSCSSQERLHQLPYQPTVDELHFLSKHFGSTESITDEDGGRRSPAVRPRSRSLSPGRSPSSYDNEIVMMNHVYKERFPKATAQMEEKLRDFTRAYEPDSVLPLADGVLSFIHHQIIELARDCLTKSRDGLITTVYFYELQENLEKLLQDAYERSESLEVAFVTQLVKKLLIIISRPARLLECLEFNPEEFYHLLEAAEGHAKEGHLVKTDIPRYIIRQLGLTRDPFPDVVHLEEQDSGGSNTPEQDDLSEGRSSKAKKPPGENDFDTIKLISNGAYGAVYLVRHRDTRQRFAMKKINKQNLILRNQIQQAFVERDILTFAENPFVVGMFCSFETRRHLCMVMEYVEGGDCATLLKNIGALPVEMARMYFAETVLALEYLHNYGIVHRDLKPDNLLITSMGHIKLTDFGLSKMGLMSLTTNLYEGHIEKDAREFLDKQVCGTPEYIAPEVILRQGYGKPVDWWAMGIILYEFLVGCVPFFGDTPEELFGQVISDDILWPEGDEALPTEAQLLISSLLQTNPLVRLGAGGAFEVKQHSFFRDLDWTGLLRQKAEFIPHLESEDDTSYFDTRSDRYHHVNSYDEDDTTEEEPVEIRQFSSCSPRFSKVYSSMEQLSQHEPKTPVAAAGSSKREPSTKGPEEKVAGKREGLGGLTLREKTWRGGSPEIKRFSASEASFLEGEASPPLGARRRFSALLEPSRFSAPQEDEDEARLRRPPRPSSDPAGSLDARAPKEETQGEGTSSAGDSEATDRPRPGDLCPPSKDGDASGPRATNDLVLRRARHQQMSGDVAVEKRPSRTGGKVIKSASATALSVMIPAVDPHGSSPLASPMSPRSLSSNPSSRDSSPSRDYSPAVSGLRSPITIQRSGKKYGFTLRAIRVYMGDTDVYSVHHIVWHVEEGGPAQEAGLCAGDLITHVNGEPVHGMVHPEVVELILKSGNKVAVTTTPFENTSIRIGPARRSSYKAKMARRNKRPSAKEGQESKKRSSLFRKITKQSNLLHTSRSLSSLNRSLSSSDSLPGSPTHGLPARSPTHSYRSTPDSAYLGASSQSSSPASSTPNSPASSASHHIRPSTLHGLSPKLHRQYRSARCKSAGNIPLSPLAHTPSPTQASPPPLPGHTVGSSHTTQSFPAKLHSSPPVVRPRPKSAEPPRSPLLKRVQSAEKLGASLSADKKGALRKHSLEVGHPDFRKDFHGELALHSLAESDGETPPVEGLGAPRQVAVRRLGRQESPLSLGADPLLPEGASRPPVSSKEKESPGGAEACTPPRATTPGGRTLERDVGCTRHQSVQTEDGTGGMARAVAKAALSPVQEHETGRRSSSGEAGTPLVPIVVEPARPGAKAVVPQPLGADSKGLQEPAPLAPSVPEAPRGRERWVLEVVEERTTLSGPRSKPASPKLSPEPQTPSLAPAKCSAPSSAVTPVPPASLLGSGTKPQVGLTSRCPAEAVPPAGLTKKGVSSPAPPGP
MAP4K3, sequence (Q8IVH8 whole entry): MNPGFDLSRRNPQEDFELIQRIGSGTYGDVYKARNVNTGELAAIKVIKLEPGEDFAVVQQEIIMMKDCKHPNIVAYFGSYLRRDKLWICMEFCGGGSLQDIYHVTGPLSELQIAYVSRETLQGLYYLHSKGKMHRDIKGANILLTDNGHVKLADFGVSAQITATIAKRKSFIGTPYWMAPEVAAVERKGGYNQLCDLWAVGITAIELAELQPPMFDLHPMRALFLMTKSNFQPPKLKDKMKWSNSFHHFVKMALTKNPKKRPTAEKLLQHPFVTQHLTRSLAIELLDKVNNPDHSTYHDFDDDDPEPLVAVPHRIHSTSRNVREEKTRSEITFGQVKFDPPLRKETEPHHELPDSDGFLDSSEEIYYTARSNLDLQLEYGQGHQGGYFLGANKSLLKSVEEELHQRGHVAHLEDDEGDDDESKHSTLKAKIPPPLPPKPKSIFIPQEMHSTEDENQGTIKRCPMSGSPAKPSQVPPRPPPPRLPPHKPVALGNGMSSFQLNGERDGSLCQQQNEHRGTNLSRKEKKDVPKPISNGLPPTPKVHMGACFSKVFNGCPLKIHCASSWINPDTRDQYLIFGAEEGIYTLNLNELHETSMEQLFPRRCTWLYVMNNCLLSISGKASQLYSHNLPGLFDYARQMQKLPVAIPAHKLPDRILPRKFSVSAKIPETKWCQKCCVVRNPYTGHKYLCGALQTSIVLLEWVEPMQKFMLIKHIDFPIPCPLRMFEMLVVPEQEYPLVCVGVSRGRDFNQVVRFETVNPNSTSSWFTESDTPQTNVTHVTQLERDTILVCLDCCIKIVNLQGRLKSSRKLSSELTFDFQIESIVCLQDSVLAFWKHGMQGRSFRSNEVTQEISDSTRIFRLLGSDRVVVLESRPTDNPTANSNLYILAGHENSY
PKN2, sequence (Q16513 whole entry): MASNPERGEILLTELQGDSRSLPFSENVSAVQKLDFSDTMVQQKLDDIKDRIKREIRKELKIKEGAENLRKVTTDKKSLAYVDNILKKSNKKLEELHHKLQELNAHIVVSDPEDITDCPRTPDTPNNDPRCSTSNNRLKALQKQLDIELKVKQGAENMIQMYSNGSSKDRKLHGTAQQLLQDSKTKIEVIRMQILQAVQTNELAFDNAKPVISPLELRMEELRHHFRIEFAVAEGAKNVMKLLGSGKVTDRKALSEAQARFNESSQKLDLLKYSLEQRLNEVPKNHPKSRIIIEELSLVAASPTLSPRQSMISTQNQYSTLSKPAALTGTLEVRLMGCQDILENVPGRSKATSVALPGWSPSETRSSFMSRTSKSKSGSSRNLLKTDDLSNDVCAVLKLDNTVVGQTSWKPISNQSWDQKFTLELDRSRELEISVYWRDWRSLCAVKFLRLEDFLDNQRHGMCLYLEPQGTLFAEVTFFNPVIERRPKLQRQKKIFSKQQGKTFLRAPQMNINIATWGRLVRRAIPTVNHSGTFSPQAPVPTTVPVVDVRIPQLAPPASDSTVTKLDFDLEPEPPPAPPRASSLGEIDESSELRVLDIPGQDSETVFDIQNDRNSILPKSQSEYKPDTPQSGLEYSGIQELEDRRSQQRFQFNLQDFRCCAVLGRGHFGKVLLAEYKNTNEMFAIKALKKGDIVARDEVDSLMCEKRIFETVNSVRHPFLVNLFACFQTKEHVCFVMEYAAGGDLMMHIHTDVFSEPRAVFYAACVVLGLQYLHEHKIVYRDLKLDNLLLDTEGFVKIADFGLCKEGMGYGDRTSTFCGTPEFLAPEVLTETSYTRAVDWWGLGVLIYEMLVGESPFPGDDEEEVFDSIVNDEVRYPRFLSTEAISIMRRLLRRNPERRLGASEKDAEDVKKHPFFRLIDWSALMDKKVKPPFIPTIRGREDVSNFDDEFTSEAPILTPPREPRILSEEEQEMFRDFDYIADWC
T6 sequence (Q07002 whole entry): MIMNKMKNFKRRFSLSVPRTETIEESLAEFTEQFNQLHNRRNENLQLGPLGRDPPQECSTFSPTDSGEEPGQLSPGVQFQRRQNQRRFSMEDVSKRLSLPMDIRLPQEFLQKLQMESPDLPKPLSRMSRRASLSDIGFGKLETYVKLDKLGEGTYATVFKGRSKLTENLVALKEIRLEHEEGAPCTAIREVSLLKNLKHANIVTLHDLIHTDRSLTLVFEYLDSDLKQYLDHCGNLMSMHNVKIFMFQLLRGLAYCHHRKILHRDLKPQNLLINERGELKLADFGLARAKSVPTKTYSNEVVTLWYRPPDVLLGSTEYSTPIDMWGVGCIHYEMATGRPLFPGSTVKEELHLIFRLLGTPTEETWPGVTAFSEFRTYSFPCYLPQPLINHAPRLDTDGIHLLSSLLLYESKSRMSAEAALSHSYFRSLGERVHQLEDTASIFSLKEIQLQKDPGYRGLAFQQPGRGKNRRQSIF

[O-][S@@+](Cc1cncs1)C(c1ccccc1)c1ccccc1 [S-CE-123, (S)-5-((Benzhydrylsulfinyl)Methyl)Thiazole]
remaining binding at 2.8 µM (ADCK3): 87%
remaining binding at 2.8 µM (ADCK4): 96%
remaining binding at 2.8 µM (ARK5): 100%
remaining binding at 2.8 µM (CIT): 74%
remaining binding at 2.8 µM (DMPK): 96%
remaining binding at 2.8 µM (EGFR): 92%
remaining binding at 2.8 µM (ERBB2): 100%
remaining binding at 2.8 µM (LATS2): 100%
remaining binding at 2.8 µM (MAP4K3): 100%
remaining binding at 2.8 µM (MARK2): 100%
remaining binding at 2.8 µM (MAST1): 94%
remaining binding at 2.8 µM (NDR1): 83%
remaining binding at 2.8 µM (NEK9): 100%
remaining binding at 2.8 µM (PAK7): 98%
remaining binding at 2.8 µM (PCTK3): 99%
remaining binding at 2.8 µM (PKAC-alpha): 95%
remaining binding at 2.8 µM (PKN2): 86%
remaining binding at 2.8 µM (PRKCI): 100%
remaining binding at 2.8 µM (PRKR): 93%
remaining binding at 2.8 µM (RIPK1): 80%
remaining binding at 2.8 µM [1]: 92%
remaining binding at 2.8 µM [2]: 100%
remaining binding at 2.8 µM (SRPK2): 76%
remaining binding at 2.8 µM (STK35): 98%
remaining binding at 2.8 µM (TLK2): 95%
remaining binding at 2.8 µM (p38-delta): 95%
